Values after ≈ are worked out from the molar mass of the structure shown.
Legend:
[1] = test system: adenosine deaminase; details: depends on adenosine deaminase; Good and de Miranda 1982; cited from earlier work
[2] = cited from earlier work
[3] = test system: herpes viruses such as herpes simplex; details: cited from earlier work
[4] = Water solubility at 25° C; format: physicochemical
[5] = test system: Beagle dogs; test: Toxicity study in Beagle dogs, per os; format: in vivo; details: 40 mg/kg/day, once daily 5 days
Method: Two male and 2 female Beagle dogs were given 6-deoxyacyclovir per os (once daily for 5 consecutive days) at a dose level of 40 mg/kg/day. There were no effects in 1 male and 1 female sacrificed at the end of the treatment period or in 1 male and 1 female sacrificed after a 2 week post-dose period.

[6] = test system: xanthine oxidase/dehydrogenase or aldehyde oxidase
Description: (§1) It is thus possible to synthesize acyclovir in the body (i.e. in vivo) by administering 6-deoxyacyclovir to mammals including humans wherein the 6-deoxyacyclovir is acted upon by xanthine oxidase/dehydrogenase or aldehyde oxidase in the body and is thereby converted into acyclovir. […] Oxygen or other appropriate electron acceptors such as ferricyanide ion or methylene blue may serve as the oxidizing agent. Microorganisms which contain or produce xanthine oxidase/dehydrogenase may be used to effect the conversion of 6-deoxyacyclovir to acyclovir.

[7] = Oral absorption and acyclovir blood/plasma levels in rats; format: in vivo
Method: The following experiments were carried out to determine the urinary excretion and plasma levels of acyclovir after oral dosing of rats with acyclovir, 6-deoxyacyclovir and the 6-amino analogue thereof i.e. 2,6-diamino-9-(2-hydroxyethoxymethyl)purine, hereinafter referred to as aminoacyclovir.
Long Evans male rats were dosed by intragastric needle with the drug and placed in metabolic cages which separated urine from feces. The collected urine and plasma samples were analyzed for acyclovir content by a radioimmunoassay (Quinn, R. P., et al., Anal. Biochem., 98, 319 (1979)).

[8] = test system: xanthine oxidase/dehydrogenase or aldehyde oxidase; test: Ex vivo (in vitro) enzymatic oxidation to acyclovir; format: biochemical
Description: as §1

[9] = test system: bovine milk xanthine oxidase; test: Enzymatic conversion of 6-deoxyacyclovir to acyclovir by bovine milk xanthine oxidase (Example 2); format: biochemical; details: 24 hours, 43.6 μM substrate, pH 6.8, 25° C, atmospheric oxygen; UV monitoring
Method: A solution (20 μL) of a purified bovine milk xanthine oxidase containing 1.06 units (nmoles of xanthine oxidized per minute) of activity was added to 500 μL of a solution 43.6 μM with respect to 6-deoxyacyclovir, 0.05M with respect to potassium phosphate and 0.13 mM with respect to ethylenediaminetetraacetic acid at pH 6.8 and 25° C. The reaction mixture was equilibrated with atmospheric oxygen, and the oxygen served as the electron acceptor. […] The indentity of acyclovir as the product of the reaction was confirmed by its NMR spectrum.

[10] = test system: xanthine oxidase from bovine milk; test: Enzyme studies: rate of oxidation by xanthine oxidase from bovine milk; format: biochemical
Description: The discovery that the 6-hydrogen purine of formula (I) above can be readily converted into its corresponding 6-hydroxy analogue is surprising since in previous studies with xanthine oxidase from bovine milk (H. Lettre et al. (1967) Biochem. Pharmacol., 16, 1747-1755; T. A. Krenitsky et al. (1972) Arch. Biophys., 150, 585-599) it was shown that 9-substitution obliterates or greatly diminishes the rate at which a variety of purines are oxidized.

Nc1nc(N)c2ncn(COCCO)c2n1 [aminoacyclovir, 2,6-diamino-9-(2-hydroxyethoxymethyl)purine]
conversion to acyclovir in vivo [1]: depends on adenosine deaminase for conversion to acyclovir in vivo

Nc1nc2c(ncn2COCCO)c(=O)[nH]1 [acyclovir, 9-(2-hydroxyethoxymethyl)guanine]
absorption upon oral administration [2]: only moderately well absorbed upon oral administration | activity against herpes viruses ([3]; herpes viruses such as herpes simplex): particularly good activity against herpes viruses | effectiveness upon topical or parenteral administration ([3]; topical or parenteral): especially effective upon topical or parenteral administration | solubility in water [4]: 1250 µg/mL (≈ 5.55 mM)

Nc1ncc2ncn(COCCO)c2n1 [6-deoxyacyclovir, 2-Amino-9-(2-hydroxyethoxymethyl)purine]
effects in toxicity study ([5]; after 2 week post-dose period): no effects | effects in toxicity study ([5]; end of treatment): no effects | conversion in vivo into acyclovir [6]: readily converted in vivo | blood levels of acyclovir compared with oral acyclovir itself [7]: higher blood levels of acyclovir are obtainable with 6-deoxyacyclovir than with acyclovir itself | absorption from the gastro-intestinal tract and plasma levels of acyclovir ([7]; rats): efficient absorption from the gastro-intestinal tract and high plasma levels of the corresponding acyclovir | ex vivo (in vitro) enzymatic oxidation to acyclovir [8]: demonstrated that acyclovir may be synthesized | conversion to acyclovir [9]: nearly complete conversion to acyclovir | rate of oxidation relative to the 9-unsubstituted purine [10]: at a faster rate than the 9-unsubstituted purine

— patent US4695570A, “Antiviral compound use” (Burroughs Wellcome Co., priority 1985, dated 1987)
